According to ChEMBL document CHEMBL2321705, “Novel diaryl ureas with efficacy in a mouse model of malaria” (Bioorg Med Chem Lett, 2013):
Activity calls are given as the source filed them. The calls are words filed in the database; no cut-off is given here.

How the values were obtained:
Plasmodium falciparum [1] = experiment: Antimalarial activity against Plasmodium falciparum 3D7 assessed as inhibition of parasite growth; type: functional, organism-based
Plasmodium falciparum [2] = experiment: Antimalarial activity against Plasmodium falciparum Dd2 assessed as inhibition of parasite growth; type: functional, organism-based
Plasmodium berghei [3] = experiment: Antimalarial activity against Plasmodium berghei infected CD-1 mouse assessed as survival beyond 8 days at 256 mg/kg, sc bid; type: functional, organism-based; parameters: dose 256 mg/kg
[4] = Inhibition of Plasmodium falciparum cysteine protease plasmepsin 2
Plasmodium falciparum [5] = experiment: Antimalarial activity against Plasmodium falciparum D6 assessed as inhibition of parasite growth; type: functional, organism-based
Plasmodium falciparum [6] = experiment: Antimalarial activity against Plasmodium falciparum W2 assessed as inhibition of parasite growth; type: functional, organism-based
Plasmodium falciparum [7] = experiment: Antimalarial activity against Plasmodium falciparum delta pfpm4 assessed as growth inhibition; type: functional, organism-based
Plasmodium falciparum [8] = experiment: Antimalarial activity against Plasmodium falciparum delta pfpm3 assessed as growth inhibition; type: functional, organism-based
Plasmodium falciparum [9] = experiment: Antimalarial activity against Plasmodium falciparum delta pfpm2 assessed as growth inhibition; type: functional, organism-based
Plasmodium falciparum [10] = experiment: Antimalarial activity against Plasmodium falciparum delta pfpm1 assessed as growth inhibition; type: functional, organism-based
Plasmodium falciparum [11] = experiment: Antimalarial activity against chloroquine-resistant Plasmodium falciparum Dd2 assessed as growth inhibition; type: functional, organism-based
Plasmodium berghei [12] = experiment: Antimalarial activity against Plasmodium berghei infected CD-1 mouse assessed as survival beyond 8 days at 128 mg/kg, sc bid; type: functional, organism-based; parameters: dose 128 mg/kg
Plasmodium berghei [13] = experiment: Antimalarial activity against Plasmodium berghei infected CD-1 mouse assessed as survival at 128 mg/kg, sc bid measured on day 31; type: functional, organism-based; parameters: dose 128 mg/kg

| Structure (SMILES) | EC50 (Plasmodium falciparum [1]) | EC50 (Plasmodium falciparum [2]) | also measured |
| --- | --- | --- | --- |
| COc1cc(Cl)ccc1Oc1ccc(Cl)cc1Cl | 100000 nM | 76 µM |  |
| O=C(O)c1cc(Cl)ccc1Oc1ccc(Cl)cc1Cl | > 150000 nM | > 150 µM |  |
| O=C(Nc1cc(C(F)(F)F)ccc1Oc1ccc(Cl)cc1Cl)Nc1cccc2ccccc12 | 1200 nM | 0.81 µM | Survival (Plasmodium berghei [3]): inactive |
| NC(=O)Nc1ccc(Oc2ccc(Cl)cc2O)c(Cl)c1 | 100000 nM | 100 µM |  |
| O=C(Nc1ccc([N+](=O)[O-])c(C(F)(F)F)c1)Nc1cc(C(F)(F)F)ccc1Oc1ccc(Cl)cc1Cl | 72 nM | 0.072 µM |  |
| CN(C(=O)N(C)c1ccc(Cl)c(C(F)(F)F)c1)c1cc(Oc2ccc(Cl)cc2Cl)cc(C(F)(F)F)c1 | 1.8 µg/mL | 2.4 µg/mL |  |
| N=C(N)c1ccc(NC(=O)Nc2ccc(Oc3ccccc3)cc2)cc1 |  |  | IC50 [4]: 17 µM; EC50 (Plasmodium falciparum [5]): 460 nM; EC50 (Plasmodium falciparum [6]): 87 nM |
| O=C(Nc1ccc(-c2ccccc2)cc1)Nc1cc(C(F)(F)F)ccc1Oc1ccc(Cl)cc1Cl | 0.29 µg/mL | 0.29 µg/mL |  |
| O=C(Nc1ccc(Oc2ccc(Cl)cc2O)c(Cl)c1)N1CCOCC1 | 100000 nM | 100 µM |  |
| O=C(NCc1ccco1)Nc1cc(C(F)(F)F)ccc1Oc1ccc(Cl)cc1Cl | 2.3 µg/mL | 2.6 µg/mL |  |
| N#Cc1cccc(NC(=O)Nc2cc(C(F)(F)F)ccc2Oc2ccc(Cl)cc2Cl)c1 | 0.14 µg/mL | 0.14 µg/mL |  |
| O=C(Nc1cc(C(F)(F)F)ccc1Oc1ccc(Cl)cc1Cl)Nc1cc(C(F)(F)F)ccc1N1CCCCC1 | 3.9 µg/mL | 2.7 µg/mL |  |
| NC(=O)Nc1cc(Cl)ccc1Oc1ccc(Cl)cc1Cl | 18000 nM | 18 µM |  |
| O=C(Nc1cccc(S(=O)(=O)C(F)(F)F)c1)Nc1cc(C(F)(F)F)ccc1Oc1ccc(Cl)cc1Cl | 0.077 µg/mL | 0.077 µg/mL |  |
| CC(C)(N)c1cc(Cl)ccc1Oc1ccc(Cl)cc1Cl | 7200 nM | 1.8 µM |  |
| O=C(Nc1cccc(Cc2ccccc2)c1)Nc1cc(C(F)(F)F)ccc1Oc1ccc(Cl)cc1Cl | 0.3 µg/mL | 0.3 µg/mL |  |
| CC(=O)Nc1cc(Cl)ccc1Oc1ccc(Cl)cc1Cl | 33000 nM | 48 µM |  |
| O=C(Nc1ccc(Cl)cc1)Nc1cc(Cl)ccc1Oc1ccc(Cl)cc1Cl | 2000 nM | 5 µM | Survival (Plasmodium berghei [3]): inactive |
| O=C(Nc1cccnc1)Nc1cc(C(F)(F)F)ccc1Oc1ccc(Cl)cc1Cl | 0.6 µg/mL | 1 µg/mL |  |
| Clc1ccc(Oc2ccc(Cl)cc2NCc2ccccc2)c(Cl)c1 | 9700 nM | 9.4 µM |  |
| O=C(Nc1ccc2ccccc2c1)Nc1cc(C(F)(F)F)ccc1Oc1ccc(Cl)cc1Cl | 610 nM | 0.41 µM | Survival (Plasmodium berghei [3]): inactive |
| O=S(=O)(Nc1cc(Cl)ccc1Oc1ccc(Cl)cc1Cl)c1ccccc1 | 4700 nM | 5.1 µM |  |
| N#Cc1ccc(NC(=O)Nc2cc(C(F)(F)F)ccc2Oc2ccc(Cl)cc2Cl)cc1C#N | 81 nM | 0.14 µM |  |
| O=C(Nc1cc(C(F)(F)F)cc(C(F)(F)F)c1)Nc1cc(C(F)(F)F)ccc1Oc1ccc(Cl)cc1Cl | 0.037 µg/mL | 0.044 µg/mL |  |

| Structure (SMILES) | EC50 (Plasmodium falciparum [1]) | EC50 (Plasmodium falciparum [2]) | also measured |
| --- | --- | --- | --- |
| O=C(Nc1ccc(Cc2ccccc2)cc1)Nc1ccc(Oc2ccc(Cl)cc2Cl)c(C(F)(F)F)c1 | 1.3 µg/mL | 1.2 µg/mL |  |
| O=C(Nc1ccc(Cl)c(C(F)(F)F)c1)Nc1cc(C(F)(F)F)ccc1Oc1ccc(Cl)cc1Cl | 37 nM | 0.055 µM | IC50 (Plasmodium falciparum [7]): 66 nM; IC90 (Plasmodium falciparum [7]): 86 nM; IC50 (Plasmodium falciparum [8]): 35 nM; IC90 (Plasmodium falciparum [8]): 70 nM; IC50 (Plasmodium falciparum [9]): 70 nM; IC90 (Plasmodium falciparum [9]): 88 nM; IC50 (Plasmodium falciparum [10]): 70 nM; IC90 (Plasmodium falciparum [10]): 88 nM; IC50 (Plasmodium falciparum [11]): 42 nM; IC90 (Plasmodium falciparum [11]): 83 nM; Survival (Plasmodium berghei [12]): Active; Survival (Plasmodium berghei [13]): inactive |
| O=C(Nc1ccc(Oc2ccc(Cl)cc2Cl)c(C(F)(F)F)c1)Nc1ccccc1Cc1ccccc1 | 0.5 µg/mL | 0.6 µg/mL |  |
| N#Cc1ccc(NC(=O)Nc2cc(C(F)(F)F)ccc2Oc2ccc(Cl)cc2Cl)cc1C(F)(F)F | 130 nM | 0.075 µM |  |
| COc1ccc(NC(=O)Nc2cc(C(F)(F)F)ccc2Oc2ccc(Cl)cc2Cl)cc1C(F)(F)F | 180 nM | 0.18 µM |  |
| O=C(Nc1ccc(F)c(C(F)(F)F)c1)Nc1cc(C(F)(F)F)ccc1Oc1ccc(Cl)cc1Cl | 130 nM | 0.15 µM |  |
| O=C(Nc1ccc(Cc2ccccc2)cc1)Nc1cc(C(F)(F)F)ccc1Oc1ccc(Cl)cc1Cl | 0.6 µg/mL | 0.3 µg/mL |  |
| NC(=O)c1cc(Cl)ccc1Oc1ccc(Cl)cc1Cl | 73000 nM | 60 µM |  |
| O=C(Nc1ccc(Cl)c(Cl)c1)Nc1cc(C(F)(F)F)ccc1Oc1ccc(Cl)cc1Cl | 200 nM | 0.2 µM |  |
| O=C(Nc1ccc(Cl)c(Cl)c1)Nc1cc(Cl)ccc1Oc1ccc(Cl)cc1Cl | 1900 nM | 2.5 µM | Survival (Plasmodium berghei [3]): inactive |
| O=C(Nc1ccc2c(c1)OCO2)Nc1cc(C(F)(F)F)ccc1Oc1ccc(Cl)cc1Cl | 1.1 µg/mL | 1.2 µg/mL |  |
| O=C(Nc1cc(C(F)(F)F)ccc1Oc1ccc(Cl)cc1Cl)NC1c2ccccc2-c2ccccc21 | 0.8 µg/mL | 1.4 µg/mL |  |
| CN(C)c1ccc(NC(=O)Nc2cc(C(F)(F)F)ccc2Oc2ccc(Cl)cc2Cl)cc1 | 1.4 µg/mL | 1.8 µg/mL |  |
| NCc1cc(Cl)ccc1Oc1ccc(Cl)cc1Cl | 2300 nM | 4.3 µM |  |
| O=C(Nc1cc(C(F)(F)F)ccc1Oc1ccc(Cl)cc1Cl)Nc1ccccc1-c1ccccc1 | 0.6 µg/mL | 0.9 µg/mL |  |
| N#Cc1cc(Cl)ccc1Oc1ccc(Cl)cc1Cl | 20000 nM | 43 µM |  |
| O=C(Nc1cc(Cl)cc(Cl)c1)Nc1cc(C(F)(F)F)ccc1Oc1ccc(Cl)cc1Cl | 0.047 µg/mL | 0.046 µg/mL |  |
| CS(=O)(=O)Nc1cc(Cl)ccc1Oc1ccc(Cl)cc1Cl | 38000 nM | 60 µM |  |
| O=C(Nc1ccccc1)Nc1cc(Cl)ccc1Oc1ccc(Cl)cc1Cl | 730 nM | 1.2 µM |  |
| Nc1cc(Cl)ccc1Oc1ccc(Cl)cc1Cl | 52000 nM | 55 µM |  |
| O=C(Nc1cccc(Oc2ccccc2)c1)Nc1cc(C(F)(F)F)ccc1Oc1ccc(Cl)cc1Cl | 0.3 µg/mL | 0.2 µg/mL |  |
| Nc1ccc(NC(=O)Nc2cc(C(F)(F)F)ccc2Oc2ccc(Cl)cc2Cl)cc1C(F)(F)F | 1500 nM | 3.6 µM |  |
| N#Cc1ccc(NC(=O)Nc2cc(C(F)(F)F)ccc2Oc2ccc(Cl)cc2Cl)cc1 | 0.14 µg/mL | 0.11 µg/mL |  |
